Test results: article PMC7737538 (ACS Medicinal Chemistry Letters, 2020)

Columns and labels:
[1] = test system: SARS-CoV-2 (two clinical isolates); test: SARS-CoV-2 antiviral assay in Vero cells, statements without strain; format: cell-based
[2] = test system: HCMV AD-169 strain; test: HCMV antiviral assay in HEL fibroblasts, AD-169 strain; format: cell-based, human cytomegalovirus; details: strain not given
[3] = test system: Vero cells; details: readout not given
[4] = test system: VZV TK+ strain (strain Oka); format: cell-based, varicella zoster virus; details: HEL fibroblasts; strain not given
[5] = in vitro; details: human
[6] = test system: human rhinovirus (HRV); details: read-out: EC50 against human rhinovirus (HRV); in vitro; cited from earlier work

SMILES | antiviral activity against SARS-CoV-2 (in words) [1] | activity against HCMV (in words) [2] | cytotoxicity in Vero cells (in words) [3] | activity against VZV (in words) [4] | also measured
CO[C@]1(CO)O[C@@H](n2ccc(N)nc2=O)C(F)(F)[C@@H]1O [1a] | devoid of antiviral activity | completely devoid of activity | devoid of antiviral activity and cytotoxicity | completely devoid of activity | 
Nc1ccn([C@@H]2O[C@](F)(CO)[C@@H](O)C2(F)F)c(=O)n1 [1b] | no selective antiviral activity |  |  |  | 
CO[C@]1(COP(=O)(N[C@@H](C)C(=O)OCc2ccccc2)Oc2ccccc2)O[C@@H](n2ccc(N)nc2=O)C(F)(F)[C@@H]1O (some centres unmarked) [2a] | devoid of antiviral activity |  | devoid of antiviral activity and cytotoxicity |  | 
C[C@H](NP(=O)(OC[C@@]1(F)O[C@@H](n2ccc(N)nc2=O)C(F)(F)[C@@H]1O)Oc1ccccc1)C(=O)OCc1ccccc1 (some centres unmarked) [2b] | minimal antiviral activity |  |  |  | 
C[C@H](NP(=O)(OC[C@H]1O[C@@H](n2ccc(N)nc2=O)C(F)(F)[C@@H]1O)Oc1ccccc1)C(=O)OCc1ccccc1 (stereo partly drawn) [2c, Benzyl ((((2R,3R,5R)-5-(4-Amino-2-oxopyrimidin-1(2H)-yl)-4,4-difluoro-3-hydroxytetrahydrofuran-2-yl)methoxy)(phenoxy)phosphoryl)-L-alaninate] | lack of activity |  |  |  | 
CO[C@]1(CO)O[C@@H](n2ccc(=O)[nH]c2=O)C(F)(F)[C@@H]1O [12a] |  | completely devoid of activity |  | completely devoid of activity | 
O=c1ccn([C@@H]2O[C@](F)(CO)[C@@H](O)C2(F)F)c(=O)[nH]1 [12b] |  | completely devoid of activity |  | completely devoid of activity | 
Nc1ccn(C[C@@H](CO)OCP(=O)(O)O)c(=O)n1 [cidofovir] |  |  |  |  | CC50 [5]: 150 ± 29.1 µM
Nc1nc(O)c2ncn(COC(CO)CO)c2n1 [ganciclovir] |  |  |  |  | CC50 [5]: 231 ± 49.2 µM
Nc1ccn([C@@H]2O[C@H](CO)[C@@H](O)C2(F)F)c(=O)n1 [gemcitabine, 2′-deoxy-2′,2′-difluorocytidine, reference compound] |  |  | high cytotoxicity |  | EC50 [6]: 0.81 to 1.92 µM
